The target of this test is Indoleamine 2,3-dioxygenase 1 (Homo sapiens, UniProt P14902). The test is described as follows: Inhibition of intracellular IDO1 activity in human HeLa cells assessed as L-kynurenine production by Ehrlichs test. The class given is cell-based.
Chain of Indoleamine 2,3-dioxygenase 1 (P14902 whole entry): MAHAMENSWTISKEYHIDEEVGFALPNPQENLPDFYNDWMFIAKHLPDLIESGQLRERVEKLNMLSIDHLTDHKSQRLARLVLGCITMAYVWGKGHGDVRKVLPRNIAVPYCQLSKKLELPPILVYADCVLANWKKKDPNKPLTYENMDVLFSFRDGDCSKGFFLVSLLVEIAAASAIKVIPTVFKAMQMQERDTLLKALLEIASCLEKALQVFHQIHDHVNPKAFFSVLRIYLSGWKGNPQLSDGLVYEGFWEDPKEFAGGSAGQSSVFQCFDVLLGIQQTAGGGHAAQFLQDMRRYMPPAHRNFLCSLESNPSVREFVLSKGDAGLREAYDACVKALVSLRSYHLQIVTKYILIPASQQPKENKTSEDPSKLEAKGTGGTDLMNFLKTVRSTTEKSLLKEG
Usually IC50 stands for the concentration that inhibits the measured activity by half. In the case of `O=C(O)C1CC(Cc2cc(Cl)ccc2Nc2cn[nH]n2)C1` (stereo unspecified), the half-inhibitory concentration (IC50) was found to be 1000 nM.

For `CCc1cc(Cl)ccc1Nc1cnn[nH]1`, the IC50 was under 100 nM. For the compound `CS(=O)(=O)NCc1cc(Cl)ccc1Nc1cnn[nH]1`, the half-inhibitory concentration (IC50) is 1000 nM. Then `N#Cc1cc(Nc2cn[nH]n2)ccc1Cl`, with 100 nM; and `Cc1cc(F)ccc1Nc1c[nH]nn1`, with under 100 nM. Then `CCc1cc(Nc2cnn[nH]2)ccc1Cl`, with 100 nM.

(Values after ChEMBL document CHEMBL3351859, “Indoleamine 2,3-dioxygenase inhibitors: potential treatment for cancer, sepsis, and more” (ACS Med Chem Lett, 2014).)
